Experimental data from patent US20080021067A1, “Methods For The Treatment Of Substance Abuse And Addiction” (priority 2004, published 2008).
Entries after “also recorded” stand apart in the source; their conditions may differ.

Key:
[1] = molecular target: T1, hMC3R (Homo sapiens, UniProt P41968); test: Membrane binding assay, 125I-NDP-alpha-MSH competition; details: ratio IC50 MC-3R / IC50 MC-4R
T1 construct: expressed in transfected cells; host or cells: CHO- or L-cells or other eukaryotic cells
T1 sequence (P41968 whole entry): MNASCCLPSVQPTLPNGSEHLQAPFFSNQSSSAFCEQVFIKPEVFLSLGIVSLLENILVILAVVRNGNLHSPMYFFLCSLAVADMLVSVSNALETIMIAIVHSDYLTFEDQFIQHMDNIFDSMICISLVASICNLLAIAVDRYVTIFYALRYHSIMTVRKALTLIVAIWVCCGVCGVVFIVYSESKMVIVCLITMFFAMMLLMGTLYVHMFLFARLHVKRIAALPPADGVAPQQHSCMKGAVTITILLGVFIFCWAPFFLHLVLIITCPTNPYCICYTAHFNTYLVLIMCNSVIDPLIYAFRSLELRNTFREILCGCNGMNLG
Description: (§1) The membrane binding assay was used to identify competitive inhibitors of ^125I-NDP-alpha-MSH binding to cloned human MCRs expressed in mouse L- or Chinese hamster ovary (CHO)-cells.
(§2) Cell lines expressing melanocortin receptors were grown in T-180 flasks containing selective medium of the composition: 1 L Dulbecco's modified Eagles Medium (DMEM) with 4.5 g L-glucose, 25 mM Hepes, without sodium pyruvate, (Gibco/BRl); 100 ml 10% heat-inactivated fetal bovine serum (Sigma); 10 mL 10,000 unit/mL penicillin & 10,000 μg/mL streptomycin (Gibco/BRl); 10 ml 200 mM L-glutamine (Gibco/BRl); 1 mg/mL geneticin (G418) (Gibco/BRl). The cells were grown at 37° C. with CO2 and humidity control until the desired cell density and cell number was obtained.
(§3) The medium was poured off and 10 mls/T-180 flask of enzyme-free dissociation media (Specialty Media Inc.) was added. The cells were incubated at 37° C. for 10 min or until cells sloughed off when flask was banged against hand.
(§4) The cells were harvested into 200 mL centrifuge tubes and spun at 1000 rpm, 4° C., for 10 min. […]
(§5) The mixture was filtered with Packard Microplate 196 filter apparatus using Packard Unifilter 96-well GF/C filter with 0.1% polyethyleneimine (Sigma). […] The top was sealed and the radioactivity quantitated in a Packard Topcount Microplate Scintillation counter.

[2] = molecular target: T2, hMC5R (Homo sapiens, UniProt P33032); test: as above; details: ratio IC50 MC-5R / IC50 MC-4R
T2 construct: expressed in transfected cells; host or cells: CHO- or L-cells or other eukaryotic cells
T2 sequence (P33032 whole entry): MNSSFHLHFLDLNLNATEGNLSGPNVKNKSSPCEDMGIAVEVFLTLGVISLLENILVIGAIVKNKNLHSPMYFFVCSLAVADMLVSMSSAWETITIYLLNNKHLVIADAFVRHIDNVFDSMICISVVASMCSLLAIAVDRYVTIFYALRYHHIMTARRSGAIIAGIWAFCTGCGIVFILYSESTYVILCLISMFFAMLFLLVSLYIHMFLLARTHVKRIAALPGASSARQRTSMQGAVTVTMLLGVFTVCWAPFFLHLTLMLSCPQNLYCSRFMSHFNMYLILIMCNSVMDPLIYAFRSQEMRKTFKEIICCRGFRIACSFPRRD
Description: as §1, §2, §3, §4, §5

[3] = molecular target: hMC1bR (Homo sapiens, UniProt Q01726); test: cAMP functional assay (agonist); type: cell-based; details: selective functional activity
hMC1bR, sequence (Q01726 whole entry): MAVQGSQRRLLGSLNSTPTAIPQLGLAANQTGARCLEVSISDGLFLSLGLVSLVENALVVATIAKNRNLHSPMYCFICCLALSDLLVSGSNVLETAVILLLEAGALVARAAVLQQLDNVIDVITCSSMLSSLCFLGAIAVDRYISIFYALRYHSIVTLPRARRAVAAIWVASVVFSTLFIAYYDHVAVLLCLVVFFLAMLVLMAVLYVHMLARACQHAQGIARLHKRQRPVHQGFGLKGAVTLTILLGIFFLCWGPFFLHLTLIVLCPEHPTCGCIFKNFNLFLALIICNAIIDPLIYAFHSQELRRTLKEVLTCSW
Description: (§6) Cells (for example, CHO- or L-cells or other eukaryotic cells) expressing a human melanocortin receptor (see e.g. Yang-Y K; Ollmann-M M; Wilson-B D; Dickinson-C; Yamada-T; Barsh-G S; Gantz-I; Mol-Endocrinol. 1997 March; 11(3): 274-80) were dissociated from tissue culture flasks by rinsing with Ca and Mg free phosphate buffered saline (14190-136, Life Technologies, Gaithersburg, Md.) and detached following 5 min incubation at 37° C. with enzyme free dissociation buffer (S-0,4-B, Specialty Media, Lavellette, N.J.). Cells were collected by centrifugation and resuspended in Earle's Balanced Salt Solution (14015-069, Life Technologies, Gaithersburg, Md.) with additions of 10 mM HEPES pH 7.5, 5 mM MgCl2, 1 mM glutamine and 1 mg/ml bovine serum albumin. Cells were counted and diluted to 1 to 5×10^6/mL. The phosphodiesterase inhibitor 3-isobutyl-1-methylxanthine was added to cells to 0.6 mM.
(§7) Agonist Assay: Test compounds were diluted in dimethylsulfoxide (DMSO) (10^−5 to 10^−10 M) and 0.1 volume of compound solution was added to 0.9 volumes of cell suspension; the final DMSO concentration was […]. After room temperature incubation for 45 min, cells were lysed by incubation at 100° C. for 5 min to release accumulated cAMP.
(§8) cAMP was measured in an aliquot of the cell lysate with the Amersham (Arlington Heights, Ill.) cAMP detection assay (RPA556). The amount of cAMP production which resulted from an unknown compound was compared to that amount of cAMP produced in response to alpha-MSH which was defined as a 100% agonist. The EC50 is defined as the compound concentration which results in half maximal stimulation, when compared to its own maximal level of stimulation.

[4] = molecular target: T3, hMC2R (Homo sapiens, UniProt Q01718); test: cAMP functional assay (agonist); type: cell-based
T3 construct: expressed in transfected cells; host or cells: CHO- or L-cells or other eukaryotic cells
T3 sequence (Q01718 whole entry): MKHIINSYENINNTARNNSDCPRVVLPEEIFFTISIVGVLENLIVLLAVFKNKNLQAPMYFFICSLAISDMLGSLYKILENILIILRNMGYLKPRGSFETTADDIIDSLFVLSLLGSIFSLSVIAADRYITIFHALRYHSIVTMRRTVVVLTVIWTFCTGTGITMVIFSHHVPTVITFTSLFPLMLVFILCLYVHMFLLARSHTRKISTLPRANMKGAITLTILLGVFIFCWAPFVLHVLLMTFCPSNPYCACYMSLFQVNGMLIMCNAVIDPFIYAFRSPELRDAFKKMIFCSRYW
Description: as §6, §7, §8

[5] = molecular target: T1, hMC3R; test: cAMP functional assay (agonist); type: cell-based
Description: as §6, §7, §8

[6] = molecular target: T2, hMC5R; test: cAMP functional assay (agonist); type: cell-based
Description: as §6, §7, §8

[7] = system: Male Wistar rats; test: Maintenance operant nicotine self-administration; type: in vivo, rat
Description: Animals: Male Wistar rats were used in all experiments. Body weight was 180-200 g at the start of the experiments. Rats were housed 2-3 per cage with food and water available ad libitum. Lights were on a 12-hour light/dark cycle, with lights on at 0600. All procedures met the guidelines of the National Institutes of Health Guide for the Care and Use of Laboratory Animals.
Operant Nicotine Self-Administration: Nicotine (Sigma Chemical Co., St. Louis, Mo.) was added to saline to achieve a concentration of 0.03 mg/ml. Standard operant chambers (Med Associates, VT) housed in sound-attenuated chambers were used for nicotine self-administration. Syringe pumps delivered nicotine via tygon tubing. The two retractable levers were located 12 cm apart and 4 cm above the floor. Fluid delivery and recording of operant responding were controlled by microcomputer. Rats were trained on a […] fixed-ratio 4 (FR4) schedule to self-administer nicotine (0.03 mg/ml, 0.1 ml per delivery) in 60 minute sessions. Once reliable levels of nicotine-reinforced self-administration were achieved, the effect of Compound A (0, and 20 mg/kg) on maintenance levels of responding was investigated.

[8] = selective functional activity, 45 min

CC[C@H](NC(C)=O)c1cc(Cl)ccc1C1CCN(C(=O)[C@@H]2CN(C(C)(C)C)C[C@H]2c2ccc(F)cc2F)CC1 [Compound A]
Selectivity Binding IC50 3R/4R [1]: 163.6 | Selectivity Binding IC50 5R/4R [2]: 36.36 | EC50 for melanocortin 4 receptor lower than for melanocortin 1 receptor [3]: at least 120 fold | Selectivity cAMP EC50 2R/4R ([4]; ratio EC50 MC-2R / EC50 MC-4R): >714.2 | EC50 for melanocortin 4 receptor lower than for melanocortin 2 receptor [4, 8]: at least 700 fold | Selectivity cAMP EC50 3R/4R ([5]; ratio EC50 MC-3R / EC50 MC-4R): 65.71 | EC50 for melanocortin 4 receptor lower than for melanocortin 3 receptor [5, 8]: at least 65 fold | Selectivity cAMP EC50 5R/4R ([6]; ratio EC50 MC-5R / EC50 MC-4R): 100 | EC50 for melanocortin 4 receptor lower than for melanocortin 5 receptor [6, 8]: at least 100 fold | effect on maintenance levels of nicotine self-administration (nicotine infusions) ([7]; 20 mg/kg po prior to testing, 60 minute session, vs baseline (p=0.0001)): significant reductions from baseline levels; also recorded: significant reduction | response rates on the alternate (non-drug reinforced) lever ([7]; Wistar rats, any dose tested (0, 20 mg/kg)): not significantly altered; also recorded: no significant effects | reduction of nicotine self administration ([7]; Wistar rats, pre-treatment, maintenance period of regular nicotine use): approximately 85%
